Here are results for 63 molecules from patent publication US10377772B2, “Macrocyclic LRRK2 kinase inhibitors” (Oncodesign S.A., priority 2014, dated 2019).

As a reminder, the IC50 is the midpoint of a concentration-inhibition curve.

The assay deals with LRRK2 recombinant protein (Homo sapiens (Human), UniProt Q5S007). Briefly: radiometric protein kinase assay (33PanQinase Activity Assay) for LRRK2. In kind it is biochemical. As to conditions: ATP 0.3 μM, LRRK2 7.3 nM, substrate GSK3(14-27), 30° C. for 60 minutes. On the procedure:
The inhibition of LRRK2 kinase was assessed using LRRK2 recombinant protein in an in vitro peptide-based kinase assay.
A radiometric protein kinase assay (^33PanQinase® Activity Assay) is used for measuring the kinase activity. All assays are performed in 96-well FlashPlates™ from Perkin Elmer in a 50 μl reaction volume. The reaction cocktail is pipetted in 4 steps in the following order: • 10 μl of non-radioactive ATP solution (in H2O) • 25 μl of assay buffer/[γ-^33P]-ATP mixture • 5 μl of test sample in 10% DMSO • 10 μl of enzyme/substrate mixture
The assay for LRRK2 contains 70 mM HEPES-NaOH pH 7.5, 3 mM MgCl2, 3 mM MnCl2, 3 μM Na-orthovanadate, 1.2 mM DTT, 50 μg/ml PEG20000, ATP (0.3 μM), [γ-^33P]-ATP (approx. […] per well), protein kinase LRRK2 (7.3 nM) and substrate (GSK3(14-27), 1.0 μg/50 μl).
The kinase is obtained from Invitrogen Corporation.
The reaction cocktails were incubated at 30° C. for 60 minutes. The reaction was stopped with 50 μl of 2% (v/v) H3PO4, plates were aspirated and washed two times with 200 μl 0.9% (w/v) NaCl. Incorporation of ^33Pi (counting of “cpm”) was determined with a microplate scintillation counter.
The compounds are dissolved to 10 mM in DMSO. Where needed, solutions are sonicated in a bath sonicator.
Table 2 provides the pIC50 values of the compounds according to the invention, obtained using the above mentioned kinase assay.

Where only a bound is given, the exact number is not on record here.

Sequence of LRRK2 recombinant protein (Q5S007 whole entry): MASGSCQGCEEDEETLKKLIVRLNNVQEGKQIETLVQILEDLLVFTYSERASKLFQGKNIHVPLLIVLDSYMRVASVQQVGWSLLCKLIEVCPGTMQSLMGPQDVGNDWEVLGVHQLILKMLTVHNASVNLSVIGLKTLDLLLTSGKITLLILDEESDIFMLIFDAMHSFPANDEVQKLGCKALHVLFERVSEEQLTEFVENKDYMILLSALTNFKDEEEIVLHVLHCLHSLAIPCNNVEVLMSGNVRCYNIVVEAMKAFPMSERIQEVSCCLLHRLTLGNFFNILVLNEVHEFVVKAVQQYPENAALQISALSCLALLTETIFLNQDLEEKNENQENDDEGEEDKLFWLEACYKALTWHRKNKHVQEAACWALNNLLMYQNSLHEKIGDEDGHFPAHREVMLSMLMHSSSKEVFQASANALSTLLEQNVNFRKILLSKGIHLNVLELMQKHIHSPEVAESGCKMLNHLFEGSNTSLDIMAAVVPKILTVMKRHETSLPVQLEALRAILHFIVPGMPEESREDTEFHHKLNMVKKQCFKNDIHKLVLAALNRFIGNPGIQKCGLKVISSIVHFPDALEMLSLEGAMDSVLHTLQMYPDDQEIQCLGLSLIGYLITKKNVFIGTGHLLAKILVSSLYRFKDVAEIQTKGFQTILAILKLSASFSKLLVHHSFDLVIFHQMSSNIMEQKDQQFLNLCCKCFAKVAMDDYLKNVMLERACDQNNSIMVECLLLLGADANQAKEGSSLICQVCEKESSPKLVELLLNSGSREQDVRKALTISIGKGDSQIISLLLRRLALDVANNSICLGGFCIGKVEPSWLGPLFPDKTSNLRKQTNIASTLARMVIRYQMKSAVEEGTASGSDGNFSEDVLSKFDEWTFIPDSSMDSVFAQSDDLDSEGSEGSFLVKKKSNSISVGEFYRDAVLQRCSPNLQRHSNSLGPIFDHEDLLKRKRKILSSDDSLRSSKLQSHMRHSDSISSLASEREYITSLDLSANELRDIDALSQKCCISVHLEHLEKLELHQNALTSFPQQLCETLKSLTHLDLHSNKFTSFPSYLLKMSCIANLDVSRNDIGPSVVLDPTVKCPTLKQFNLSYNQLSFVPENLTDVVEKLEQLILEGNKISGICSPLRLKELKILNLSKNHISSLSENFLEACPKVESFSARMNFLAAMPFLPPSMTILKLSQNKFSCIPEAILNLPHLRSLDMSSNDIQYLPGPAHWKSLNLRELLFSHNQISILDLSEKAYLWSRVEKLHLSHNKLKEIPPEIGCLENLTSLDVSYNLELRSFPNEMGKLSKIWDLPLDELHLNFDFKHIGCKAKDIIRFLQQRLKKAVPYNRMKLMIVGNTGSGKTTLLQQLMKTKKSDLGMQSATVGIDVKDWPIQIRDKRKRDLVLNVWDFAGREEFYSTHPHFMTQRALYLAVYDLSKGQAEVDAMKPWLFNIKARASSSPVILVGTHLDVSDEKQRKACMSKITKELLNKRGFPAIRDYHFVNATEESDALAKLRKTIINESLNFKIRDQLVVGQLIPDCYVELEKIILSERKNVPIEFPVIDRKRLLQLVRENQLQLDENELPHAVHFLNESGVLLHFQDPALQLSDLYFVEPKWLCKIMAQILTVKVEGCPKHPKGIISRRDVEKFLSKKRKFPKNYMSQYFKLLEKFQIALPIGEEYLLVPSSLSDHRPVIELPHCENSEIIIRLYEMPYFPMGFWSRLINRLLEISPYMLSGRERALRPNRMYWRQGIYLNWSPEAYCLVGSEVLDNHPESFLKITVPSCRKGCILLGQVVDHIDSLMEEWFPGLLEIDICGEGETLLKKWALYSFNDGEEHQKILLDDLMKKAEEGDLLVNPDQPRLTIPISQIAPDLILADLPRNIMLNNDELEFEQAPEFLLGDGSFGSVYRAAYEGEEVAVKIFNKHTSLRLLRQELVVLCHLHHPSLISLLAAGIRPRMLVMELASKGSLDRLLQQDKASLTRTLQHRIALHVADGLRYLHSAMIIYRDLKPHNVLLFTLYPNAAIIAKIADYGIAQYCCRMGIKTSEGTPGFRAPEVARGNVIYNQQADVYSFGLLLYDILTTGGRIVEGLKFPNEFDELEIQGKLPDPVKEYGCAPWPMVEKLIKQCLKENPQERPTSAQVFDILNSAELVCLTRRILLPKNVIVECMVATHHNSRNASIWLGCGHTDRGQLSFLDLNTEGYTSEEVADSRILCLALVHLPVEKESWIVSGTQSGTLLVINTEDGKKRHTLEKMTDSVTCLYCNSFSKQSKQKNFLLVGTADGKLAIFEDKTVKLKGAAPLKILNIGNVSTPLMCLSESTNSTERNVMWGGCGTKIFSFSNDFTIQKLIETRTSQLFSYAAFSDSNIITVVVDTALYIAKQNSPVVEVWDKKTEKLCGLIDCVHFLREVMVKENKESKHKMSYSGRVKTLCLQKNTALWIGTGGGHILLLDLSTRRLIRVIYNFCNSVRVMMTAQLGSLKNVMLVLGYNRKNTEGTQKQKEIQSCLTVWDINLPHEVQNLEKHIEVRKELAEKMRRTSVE

Regarding `c1cc2cc(c1)-c1cnn3ccc(nc13)NCCN1CCC[C@H]1CO2` [Example N1], the IC50 is below 0.1 µM.

As to `Fc1ccc2cc1-c1cnn3ccc(nc13)NCCN1CCC[C@H]1CN2` [Example N2], the concentration for half-maximal inhibition (IC50) was below 0.1 µM.

For the molecule `Fc1ccc2cc1-c1cnn3ccc(nc13)NC1CCN(CCN2)CC1` [Example N3], the 50% inhibitory concentration (IC50) is below 0.1 µM.

In the case of `Fc1ccc2cc1-c1cnn3ccc(nc13)NCCN1CCC(CC1)N2` [Example N4], the concentration for half-maximal inhibition (IC50) was below 0.1 µM.

Take `Fc1ccc2cc1-c1cnn3ccc(nc13)NCCC1CCCN1CCN2` (stereo not drawn) [Example N5]: the 50% inhibitory concentration (IC50) is below 0.1 µM.

As to `Fc1ccc2cc1-c1cnn3ccc(nc13)NC1CCN(CCCN2)C1` (stereo not drawn) [Example N6], the IC50 was below 0.1 µM.

Regarding `Fc1ccc2cc1-c1cnn3ccc(nc13)OCCN1CCC(CC1)N2` [Example N7], the half-maximal inhibitory concentration (IC50) is below 0.1 µM.

For the molecule `Fc1ccc2cc1-c1cnn3ccc(nc13)NCCN1CCC[C@H]1CO2` [Example N8], the IC50 was below 0.1 µM.

For the molecule `Fc1ccc2cc1-c1cnn3ccc(nc13)OC1CCN(CCN2)CC1` [Example N9], the IC50 was in the range of 0.1 to 1 µM.

Take `Cc1cc(F)c2cc1NC[C@@H]1CCCN1CCNc1ccn3ncc-2c3n1` [Example N10]: the concentration for half-maximal inhibition (IC50) is below 0.1 µM.

In the case of `CN1CCN2CCC[C@H]2COc2ccc(F)c(c2)-c2cnn3ccc1nc23` [Example N11], the concentration for half-maximal inhibition (IC50) was below 0.1 µM.

As for `Fc1ccc2cc1-c1cnn3ccc(nc13)NCCN1C[C@H](F)C[C@H]1CO2` [Example N12], the 50% inhibitory concentration (IC50) was below 0.1 µM.

As for `Fc1ccc2cc1-c1cnn3ccc(nc13)OCCCN1CCC[C@H]1CN2` [Example N13], the half-inhibitory concentration (IC50) is 0.1 to 1 µM.

Consider `Fc1ccc2cc1-c1cnn3ccc(nc13)NCCCN1CCC[C@H]1CO2` [Example N14], for which the 50% inhibitory concentration (IC50) was below 0.1 µM.

Consider `CN1c2ccn3ncc(c3n2)-c2cc(ccc2F)OCCN2CCC1CC2` [Example N15], for which the IC50 is below 0.1 µM.

As for `CN1CCN2CCC[C@H]2CNc2ccc(F)c(c2)-c2cnn3ccc1nc23` [Example N16], the half-maximal inhibitory concentration (IC50) is below 0.1 µM.

For `Fc1ccc2cc1-c1cnn3ccc(nc13)NCCN1CCCC[C@H]1CO2` [Example N17], the 50% inhibitory concentration (IC50) is below 0.1 µM.

On to `Fc1ccc2cc1-c1cnn3ccc(nc13)NCCN1CCCC[C@H](C1)O2` [Example N18], for which the half-maximal inhibitory concentration (IC50) is below 0.1 µM.

As to `CN1CCN2CCCC[C@H]2COc2ccc(F)c(c2)-c2cnn3ccc1nc23` [Example N19], the IC50 is below 0.1 µM.

As for `Fc1ccc2cc1-c1cnn3ccc(nc13)NCCN1CCNC[C@H]1CO2` [Example N20], the IC50 is below 0.1 µM.

Consider `Fc1ccc2cc1-c1cnn3ccc(nc13)OCCN1CCC[C@H]1CN2` [Example N21], for which the half-maximal inhibitory concentration (IC50) is below 0.1 µM.

Consider `Fc1ccc2cc1-c1cnn3ccc(nc13)NCCN1CCOC[C@H]1CO2` [Example N22], for which the IC50 was below 0.1 µM.

Take `CN1CCN2CCNc3ccn4ncc(c4n3)-c3cc(ccc3F)OC[C@@H]2C1` [Example N23]: the half-inhibitory concentration (IC50) was below 0.1 µM.

On to `CN1CCN2CCN(C)c3ccn4ncc(c4n3)-c3cc(ccc3F)OC[C@@H]2C1` [Example N24], for which the IC50 was below 0.1 µM.

Consider `CN1CCN2CCOC[C@H]2COc2ccc(F)c(c2)-c2cnn3ccc1nc23` [Example N25], for which the IC50 was below 0.1 µM.

Consider `Fc1cc(Cl)c2cc1-c1cnn3ccc(nc13)NCCN1CCC[C@H]1CO2` [Example N26], for which the 50% inhibitory concentration (IC50) is below 0.1 µM.

In the case of `Fc1ccc2cc1-c1cnn3ccc(nc13)NCCN1C[C@H]3CCCN3C[C@H]1CO2` [Example N27], the IC50 was below 0.1 µM.

On to `Fc1ccc2cc1-c1cnn3ccc(nc13)NCCN1CCNC[C@H](C1)O2` [Example N28], for which the IC50 was below 0.1 µM.

On to `CN1CCN2C[C@H]3CCCN3C[C@H]2COc2ccc(F)c(c2)-c2cnn3ccc1nc23` [Example N29], for which the IC50 is below 0.1 µM.

As to `Fc1ccc2cc1-c1cnn3ccc(nc13)NCCN1C[C@H]3CCCN3C[C@@H]1CO2` [Example N30], the IC50 is below 0.1 µM.

In the case of `CN1CCN2C[C@H](CN3CCC[C@H]3C2)Oc2ccc(F)c(c2)-c2cnn3ccc1nc23` [Example N31], the half-inhibitory concentration (IC50) was below 0.1 µM.

For `CC(=O)N1CCN2CCNc3ccn4ncc(c4n3)-c3cc(ccc3F)OC[C@@H]2C1` [Example N32], the half-maximal inhibitory concentration (IC50) was below 0.1 µM.

As for `Fc1ccc2cc1-c1cnn3ccc(nc13)NCCN1CCC(CC1)O2` [Example N33], the IC50 is below 0.1 µM.

For `CN1CCN2CCC(CC2)Oc2ccc(F)c(c2)-c2cnn3ccc1nc23` [Example N34], the IC50 is below 0.1 µM.

Take `Fc1ccc2cc1-c1cnn3ccc(nc13)NCCN1CCNC[C@@H]1CO2` [Example N35]: the IC50 was below 0.1 µM.

For `CN1CCN2CCNc3ccn4ncc(c4n3)-c3cc(ccc3F)OC[C@H]2C1` [Example N36], the concentration for half-maximal inhibition (IC50) was below 0.1 µM.

Take `Fc1ccc2cc1-c1cnn3ccc(nc13)CCCN1CCC[C@H]1CO2` [Example N37]: the IC50 is below 0.1 µM.

Consider `Fc1ccc2cc1-c1cnn3ccc(nc13)NCCN1C[C@@H]3CCCN3C[C@H]1CO2` [Example N38], for which the IC50 was below 0.1 µM.

Turning to `Fc1ccc2cc1-c1cnn3ccc(nc13)NCCN1C[C@@H](F)C[C@H]1CO2` [Example N39], the IC50 is 0.1 to 1 µM.

Consider `C[C@H]1C[C@@H]2CCN1CCNc1ccn3ncc(c3n1)-c1cc(ccc1F)O2` [Example N40], for which the half-inhibitory concentration (IC50) is below 0.1 µM.

Turning to `Fc1ccc2cc1-c1cnn3ccc(nc13)NCCN1CCC=C[C@H]1CO2` [Example N41], the IC50 is below 0.1 µM.

Regarding `CN1CCN2C[C@@H]3CCCN3C[C@H]2COc2ccc(F)c(c2)-c2cnn3ccc1nc23` [Example N42], the concentration for half-maximal inhibition (IC50) was below 0.1 µM.

Consider `Fc1ccc2cc1-c1cnn3ccc(nc13)NCCN1C[C@@H](CN3CCC[C@H]3C1)O2` [Example N43], for which the IC50 was below 0.1 µM.

For `CN1CCN2C[C@@H](CN3CCC[C@H]3C2)Oc2ccc(F)c(c2)-c2cnn3ccc1nc23` [Example N44], the 50% inhibitory concentration (IC50) is below 0.1 µM.

Consider `C[C@@H]1CN2CCNc3ccn4ncc(c4n3)-c3cc(ccc3F)OC[C@@H]2CN1` [Example N45], for which the IC50 was below 0.1 µM.

With `C[C@@H]1CN2CCNc3ccn4ncc(c4n3)-c3cc(ccc3F)OC[C@@H]2CN1C` [Example N46], the IC50 is below 0.1 µM.

Turning to `C[C@@H]1CN2CCNc3ccn4ncc(c4n3)-c3cc(ccc3F)OC[C@@H]2CN1C1CC1` [Example N47], the IC50 was below 0.1 µM.

For `CCCN1C[C@H]2COc3ccc(F)c(c3)-c3cnn4ccc(nc34)NCCN2C[C@H]1C` [Example N48], the IC50 is below 0.1 µM.

As to `C[C@@H]1CN2CCNc3ccn4ncc(c4n3)-c3cc(ccc3F)OC[C@@H]2CN1CC1CC1` [Example N49], the IC50 was below 0.1 µM.

With `CCN1C[C@H]2COc3ccc(F)c(c3)-c3cnn4ccc(nc34)NCCN2C[C@H]1C` [Example N50], the IC50 was below 0.1 µM.

Regarding `CC(C)[C@H]1CN2CCNc3ccn4ncc(c4n3)-c3cc(ccc3F)O[C@H](CN1)C2` [Example N51], the half-maximal inhibitory concentration (IC50) is below 0.1 µM.

In the case of `Fc1ccc2cc1-c1cnc3ccc(nn13)NCCN1CCC[C@H]1CO2` [Example N52], the IC50 is below 0.1 µM.

As to `C[C@H]1CN2CCNc3ccn4ncc(c4n3)-c3cc(ccc3F)OC[C@@H]2CN1` [Example N53], the IC50 was below 0.1 µM.

In the case of `C[C@H]1CN2CCNc3ccn4ncc(c4n3)-c3cc(ccc3F)O[C@H](CN1)C2` [Example N54], the IC50 is below 0.1 µM.

Consider `CC1(C)CN2CCNc3ccn4ncc(c4n3)-c3cc(ccc3F)OC[C@@H]2CN1` [Example N55], for which the concentration for half-maximal inhibition (IC50) is below 0.1 µM.

In the case of `CC(C)[C@H]1CN2CCN(C)c3ccn4ncc(c4n3)-c3cc(ccc3F)OC[C@@H]2CN1` [Example N56], the half-inhibitory concentration (IC50) fell in the range of 0.1 to 1 µM.

For the molecule `Fc1ccc2cc1-c1cnn3ccc(nc13)N[C@H]1CCCN(CCO2)C1` [Example N57], the IC50 is below 0.1 µM.

On to `CC1(C)CN2CCNc3ccn4ncc(c4n3)-c3cc(ccc3F)O[C@H](CN1)C2` [Example N58], for which the half-maximal inhibitory concentration (IC50) is below 0.1 µM.

In the case of `Fc1ccc2cc1-c1cnc3ccc(nn13)NCCN1CCCC[C@H](C1)O2` [Example N59], the half-inhibitory concentration (IC50) was below 0.1 µM.

As for `Fc1ccc2cc1-c1cnn3ccc(nc13)N[C@@H]1CCN(CCO2)C1` [Example N60], the 50% inhibitory concentration (IC50) is below 0.1 µM.

As to `CN1c2ccn3ncc(c3n2)-c2cc(ccc2F)OCCN2CC[C@@H]1C2` [Example N61], the IC50 was below 0.1 µM.

Take `CC1(C)CN2CCNc3ccn4ncc(c4n3)-c3cc(ccc3F)OC[C@@H]2CN1C1CC1` [Example N62]: the IC50 was below 0.1 µM.

For the molecule `C=CCN1C[C@H]2COc3ccc(F)c(c3)-c3cnn4ccc(nc34)NCCN2CC1(C)C` [Example N63], the half-inhibitory concentration (IC50) was below 0.1 µM.
